US20080090805A1, “CB-1 MODULATING COMPOUNDS AND THEIR USE” (ACADIA PHARMACEUTICALS INC., priority 2005, published 2008)

Target: CB1 (mutant) (Homo sapiens, UniProt P21554)
Assay: R-SAT functional receptor assay, CB1 (mutant, truncated after amino acid 417)
Type: cell-based
Conditions: Appendix A, R-SAT CB1; for IC50 / pIC50: receptor form (mutant or wild-type) not stated; for IC50: read-out: pIC50 (converted); for Emax: receptor form not stated, relative to SR141716 (100%), read-out: % Inhibition

Chain of CB1 (mutant) (P21554 1-417, change not shown): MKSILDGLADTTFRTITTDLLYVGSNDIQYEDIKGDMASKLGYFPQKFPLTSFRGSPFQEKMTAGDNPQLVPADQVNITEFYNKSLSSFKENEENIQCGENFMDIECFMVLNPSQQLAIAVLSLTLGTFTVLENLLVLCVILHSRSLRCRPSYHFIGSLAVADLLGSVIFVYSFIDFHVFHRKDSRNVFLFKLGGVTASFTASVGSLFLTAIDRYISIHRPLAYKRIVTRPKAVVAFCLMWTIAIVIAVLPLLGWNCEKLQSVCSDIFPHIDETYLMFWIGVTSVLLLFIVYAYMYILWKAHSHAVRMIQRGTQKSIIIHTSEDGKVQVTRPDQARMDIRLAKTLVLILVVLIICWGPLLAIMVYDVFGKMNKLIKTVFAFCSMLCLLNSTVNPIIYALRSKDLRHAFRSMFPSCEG

Molecule COc1ccc(C2=Nc3cc(C(=O)NNC(=O)Cc4ccccc4)ccc3Sc3ccccc32)cc1 has an IC50 of 50.1 nM and an Emax of 77%.

Work on CCCCC1=Nc2cc(C(=O)NC)ccc2Sc2ccccc21 yielded an IC50 of 50.1 nM and an Emax of 55%.

Work on O=C(NCc1ccncc1)c1ccc2c(c1)N=C(c1cccc(F)c1)c1ccccc1S2 yielded an IC50 of 50.1 nM and an Emax of 95%.

Molecule O=C(NCc1ccccn1)c1ccc2c(c1)N=C(c1ccc(F)cc1)c1ccccc1S2 has an IC50 of 63.1 nM and an Emax of 90%.

CCONC(=O)c1ccc2c(c1)N=C(c1ccc(F)cc1)c1ccccc1S2 gave an IC50 of 63.1 nM and an Emax of 98%.

Molecule COc1ccc(C2=Nc3cc(C(=O)NCc4ccccn4)ccc3Sc3ccccc32)cc1 has an IC50 of 63.1 nM and an Emax of 93%.

Cc1cccnc1C1=Nc2cc(C(=O)NCCC(C)C)ccc2Sc2ccccc21 was tested, and the IC50 was 63.1 nM and the Emax was 94%.

CCCC1=Nc2cc(C(=O)NC(C)c3ccccc3)ccc2Sc2ccccc21 (centres unmarked) was tested, and the IC50 was 63.1 nM and the Emax was 97%.

CCONC(=O)c1ccc2c(c1)N=C(c1ccc(Cl)cc1)c1ccccc1S2 gave an IC50 of 63.1 nM and an Emax of 91%.

With CCCC1=Nc2cc(C(=O)NCCCN(CC(C)C)CC(C)C)ccc2Sc2ccccc21 the IC50 was 63.1 nM and the Emax was 103%.

CCCC1=Nc2cc(C(=O)NCCN(CC(C)C)CC(C)C)ccc2Sc2ccccc21 was tested, and the IC50 was 63.1 nM and the Emax was 105%.

With CCCC1=Nc2cc(C(=O)NCCCOC(C)C)ccc2Sc2ccccc21 the IC50 was 63.1 nM and the Emax was 117%.

Work on COCCNC(=O)c1ccc2c(c1)N=C(c1sccc1C)c1ccccc1S2 yielded an IC50 of 63.1 nM and an Emax of 88%.

In the case of COCCNC(=O)c1ccc2c(c1)N=C(c1ccc(Cl)cc1F)c1ccccc1S2, the IC50 is reported as 63.1 nM and the Emax is reported as 104%.

With O=C(NN1CCOCC1)c1ccc2c(c1)N=C(C1CCCCC1)c1ccccc1S2 the IC50 was 63.1 nM and the Emax was 56%.

Molecule CCCCN(C)C(=O)c1ccc2c(c1)N=C(c1ccc(Cl)cc1)c1ccccc1S2 has an IC50 of 63.1 nM and an Emax of 92%.

For CCCCN(C)C(=O)c1ccc2c(c1)N=C(c1cccc(F)c1)c1ccccc1S2, the IC50 was 63.1 nM and the Emax was 90%.

With CCCC1=Nc2cc(C(=O)NCCCN3CCN(C4CCCCC4)CC3)ccc2Sc2ccccc21 the IC50 was 631 nM and the Emax was 118%.

CCCC1=Nc2cc(C(=O)N3CCc4ccccc4C3)ccc2Sc2ccccc21 gave an IC50 of 631 nM and an Emax of 95%.

With CCCCNC(=O)c1ccc2c(c1)N=C(C#C[Si](C)(C)C)c1ccccc1S2 the IC50 was 631 nM and the Emax was 64%.

CCCCN(C)CCCNC(=O)c1ccc2c(c1)N=C(CCC)c1ccccc1S2 was tested, and the IC50 was 794 nM and the Emax was 124%.

Molecule O=C(NN1CCOCC1)c1ccc2c(c1)N=C(N1CCCCC1)c1ccccc1S2 has an IC50 of 794 nM and an Emax of 99%.

With CCOCCNC(=O)c1ccc2c(c1)N=C(N1CCCCC1)c1ccccc1S2 the IC50 was 794 nM and the Emax was 103%.

In the case of CC(C)NC(=O)c1ccc2c(c1)N=C(c1ccccn1)c1ccccc1S2, the IC50 is reported as 794 nM and the Emax is reported as 60%.

In the case of O=C(NC1CCCC1)c1ccc2c(c1)N=C(c1ccccc1Cl)c1ccccc1S2, the IC50 is reported as 794 nM and the Emax is reported as 59%.

Molecule CCCC1=Nc2cc(C(=O)NCCc3ccc(OC)c(OC)c3)ccc2Sc2ccccc21 has an IC50 of 31.6 nM and an Emax of 105%.

In the case of COCCNC(=O)c1ccc2c(c1)N=C(c1ccccc1Cl)c1ccccc1S2, the IC50 is reported as 794 nM and the Emax is reported as 62%.

In the case of CCCC1=Nc2cc(C(=O)NCc3ccco3)ccc2Sc2ccccc21, the IC50 is reported as 31.6 nM and the Emax is reported as 103%.

CON(C)C(=O)c1ccc2c(c1)N=C(c1sccc1C)c1ccccc1S2 was tested, and the IC50 was 794 nM and the Emax was 42%.

Work on CONC(=O)c1ccc2c(c1)N=C(c1ccc(Br)cc1)c1ccccc1S2 yielded an IC50 of 794 nM and an Emax of 68%.

For CCCC1=Nc2cc(C(=O)NCCc3ccccc3)ccc2Sc2ccccc21, the IC50 was 794 nM and the Emax was 98%.

O=C(NCc1ccncc1)c1ccc2c(c1)N=C(c1ccccc1Cl)c1ccccc1S2 was tested, and the IC50 was 794 nM and the Emax was 67%.

O=C(NCc1ccncc1)c1ccc2c(c1)N=C(NCc1ccc(Cl)cc1)c1ccccc1S2 was tested, and the IC50 was 794 nM and the Emax was 56%.

O=C(NCc1ccc(Cl)cc1Cl)c1ccc2c(c1)N=C(C1CCCCC1)c1ccccc1S2 gave an IC50 of 31.6 nM and an Emax of 90%.

For CCCC1=Nc2cc(C(=O)N3CCN(C(=O)OCC)CC3)ccc2Sc2ccccc21, the IC50 was 1000 nM and the Emax was 77%.

CCCNC(=O)c1ccc2c(c1)N=C(CCC)c1ccccc1S2 was tested, and the IC50 was 31.6 nM and the Emax was 95%.

In the case of CCCC1=Nc2cc(C(=O)NC(C)CCN(C)C(=O)OCC)ccc2Sc2ccc(C)cc21 (centres unmarked), the IC50 is reported as 1000 nM and the Emax is reported as 79%.

For CCCCN(C)C(=O)c1ccc2c(c1)N=C(c1ccccn1)c1ccccc1S2, the IC50 was 1000 nM and the Emax was 57%.

With Cc1cccnc1C1=Nc2cc(C(=O)NC3CCCC3)ccc2Sc2ccccc21 the IC50 was 1000 nM and the Emax was 57%.

With CONC(=O)c1ccc2c(c1)N=C(c1cccc(F)c1)c1ccccc1S2 the IC50 was 1000 nM and the Emax was 67%.

CCCCN(C)C(=O)c1ccc2c(c1)N=C(c1ccc(F)cc1)c1ccccc1S2 gave an IC50 of 31.6 nM and an Emax of 107%.

O=C(NCc1ccco1)c1ccc2c(c1)N=C(c1ccccn1)c1ccccc1S2 gave an IC50 of 31.6 nM and an Emax of 102%.

CCCSCCCNC(=O)c1ccc2c(c1)N=C(CCC)c1ccccc1S2 gave an IC50 of 1580 nM and an Emax of 87%.

With CCCNC(=O)c1ccc2c(c1)N=C(c1ccccn1)c1ccccc1S2 the IC50 was 39.8 nM and the Emax was 116%.

CCCNC1=Nc2cc(C(=O)NN3CCCCC3)ccc2Sc2ccccc21 gave an IC50 of 1580 nM and an Emax of 89%.

CCCC1=Nc2cc(C(=O)NCC3CCCN3CC)ccc2Sc2ccccc21 (centres unmarked) showed an IC50 of 1580 nM and an Emax of 133%.

CON(C)C(=O)c1ccc2c(c1)N=C(c1ccc(Cl)cc1F)c1ccccc1S2 was tested, and the IC50 was 1580 nM and the Emax was 46%.

In the case of CCCC1=Nc2cc(C(=O)NCCN(CC)CC)ccc2Sc2ccccc21, the IC50 is reported as 1580 nM and the Emax is reported as 131%.

CCCC1=Nc2cc(C(=O)NCc3ccc4c(c3)OCO4)ccc2Sc2ccc(C)cc21 showed an IC50 of 1580 nM and an Emax of 77%.

NS(=O)(=O)c1ccc(CNC(=O)c2ccc3c(c2)N=C(NCc2ccc(Cl)cc2)c2ccccc2S3)cc1 gave an IC50 of 1580 nM and an Emax of 41%.

CCCC1=Nc2cc(C(=O)NCCN(C)C3CCCCC3)ccc2Sc2ccccc21 was tested, and the IC50 was 2000 nM and the Emax was 123%.

O=C(NN1CCCCC1)c1ccc2c(c1)N=C(Nc1ccccc1)c1ccccc1S2 was tested, and the IC50 was 2000 nM and the Emax was 92%.

CCCC1=Nc2cc(C(=O)NCCCN3CCN(C)CC3)ccc2Sc2ccccc21 gave an IC50 of 2510 nM and an Emax of 120%.

In the case of CCCC1=Nc2cc(C(=O)N3CCN(C(=O)c4ccco4)CC3)ccc2Sc2ccccc21, the IC50 is reported as 2510 nM and the Emax is reported as 88%.

Molecule CCCC1=Nc2cc(C(=O)NCCCN3CCN(c4ccc(OC)cc4)CC3)ccc2Sc2ccccc21 has an IC50 of 2510 nM and an Emax of 79%.

CCCC1=Nc2cc(C(=O)NCCCN(CC)CC)ccc2Sc2ccccc21 was tested, and the IC50 was 2510 nM and the Emax was 125%.

Molecule CCCC1=Nc2cc(C(=O)N3CCC(N4CCCCC4)CC3)ccc2Sc2ccccc21 has an IC50 of 2510 nM and an Emax of 128%.

CCCC1=Nc2cc(C(=O)NC(C)CCc3ccccc3)ccc2Sc2ccccc21 (centres unmarked) showed an IC50 of 39.8 nM and an Emax of 95%.

CCCC1=Nc2cc(C(=O)NCCN3CCCC3)ccc2Sc2ccccc21 was tested, and the IC50 was 3160 nM and the Emax was 138%.

CCONC(=O)c1ccc2c(c1)N=C(c1ccc(Cl)cc1Cl)c1ccccc1S2 showed an IC50 of 3160 nM and an Emax of 37%.

For CCCC1=Nc2cc(C(=O)NCCN3CCN(c4cccc(C)c4C)CC3)ccc2Sc2ccccc21, the IC50 was 3160 nM and the Emax was 84%.

Molecule CCCNC(=O)c1ccc2c(c1)N=C(c1ccccc1F)c1ccccc1S2 has an IC50 of 39.8 nM and an Emax of 97%.

In the case of CCOC(=O)c1ccc(C2=Nc3cc(C(=O)NNC(=O)Cc4ccccc4)ccc3Sc3ccccc32)cc1, the IC50 is reported as 3160 nM and the Emax is reported as 61%.

Work on CONC(=O)c1ccc2c(c1)N=C(c1ccc(C#N)cc1)c1ccccc1S2 yielded a pIC50 of 1.0 and an Emax of 36%.

For CCONC(=O)c1ccc2c(c1)N=C(c1ccccn1)c1ccccc1S2, the pIC50 was 1.0 and the Emax was 3%.

CON(C)C(=O)c1ccc2c(c1)N=C(c1ccccc1Cl)c1ccccc1S2 showed a pIC50 of 1.0 and an Emax of 10%.

With CCONC(=O)c1ccc2c(c1)N=C(c1ccccc1Cl)c1ccccc1S2 the pIC50 was 1.0 and the Emax was 19%.

With CON(C)C(=O)c1ccc2c(c1)N=C(c1ccccn1)c1ccccc1S2 the pIC50 was 1.0 and the Emax was 8%.

CONC(=O)c1ccc2c(c1)N=C(c1ccccc1Cl)c1ccccc1S2 showed a pIC50 of 1.0 and an Emax of -15%.

In the case of O=C(NOc1cccc(Cl)c1)c1ccc2c(c1)N=C(C1CCCCC1)c1cc(F)ccc1S2, the IC50 is reported as 39.8 nM and the Emax is reported as 100%.

CONC(=O)c1ccc2c(c1)N=C(c1ccc(Cl)cc1Cl)c1ccccc1S2 showed a pIC50 of 1.0 and an Emax of -27%.

For COCCNC(=O)c1ccc2c(c1)N=C(c1ncccc1C)c1ccccc1S2, the pIC50 was 1.0 and the Emax was -6%.

With CONC(=O)c1ccc2c(c1)N=C(c1ncccc1C)c1ccccc1S2 the pIC50 was 1.0 and the Emax was 8%.

CON(C)C(=O)c1ccc2c(c1)N=C(c1ncccc1C)c1ccccc1S2 gave a pIC50 of 1.0 and an Emax of 0%.

CCCC1=Nc2cc(C(=O)NCC(OCC)OCC)ccc2Sc2ccccc21 gave an IC50 of 39.8 nM and an Emax of 107%.

CCONC(=O)c1ccc2c(c1)N=C(c1ncccc1C)c1ccccc1S2 gave a pIC50 of 1.0 and an Emax of 21%.

O=C(c1ccc2c(c1)N=C(c1cccc(Cl)c1)c1ccccc1S2)N1CCCCC1 showed an IC50 of 39.8 nM and an Emax of 80%.

In the case of CCCCN(C)C(=O)c1ccc2c(c1)N=C(c1ncccc1C)c1ccccc1S2, the pIC50 is reported as 1.0 and the Emax is reported as 14%.

Molecule CON(C)C(=O)c1ccc2c(c1)N=C(c1ccc(Cl)cc1Cl)c1ccccc1S2 has a pIC50 of 1.0 and an Emax of 18%.

With Cc1cccnc1C1=Nc2cc(C(=O)NCc3cccnc3)ccc2Sc2ccccc21 the IC50 was > 126 nM and the Emax was 39%.

Cc1cc(NC(=O)c2ccc3c(c2)N=C(c2cccc(F)c2)c2ccccc2S3)no1 was tested, and the IC50 was > 1260 nM and the Emax was 29%.

For Cc1cccnc1C1=Nc2cc(C(=O)NCCc3cccnc3)ccc2Sc2ccccc21, the IC50 was > 5010 nM and the Emax was 28%.
